Assay results taken from patent publication US20060052303A1, “Use of thyrotropin for regeneration of bone” (priority 2004, published 2006).

Columns and labels:
[1] = system: ovariectomized (OVX) rats; assay: Bone restoration study in ovariectomized rats with native rat TSH (Example 3B); type: in vivo
Protocol: To confirm that TSH has an anabolic effect on bone, a restoration study was performed, Native rat TSH was administered seven months after ovariectomy essentially following a similar dose and dosing regimen as described in Example 2B except that administration of TSH was extended until 16 weeks.
Twelve animals were sham operated, while forty eight were ovariectomized (OVX) bilaterally by abdominal approach. Treatment started six weeks after ovariectomy as follows: (1) SHAM (n=12); (2) OVX+vehicle (n=12); (3) OVX+0.01 μg (n=12); (3) OVX+0.1 μg (n=12); and (4) OVX+0.3 μg (n=12).
Bone mineral density monitoring in vivo and ex vivo and serum and urine biochemical analyses were performed essentially as described in Example 3A. Eight-month old rats were ovariectomized and then left for seven months to lose bone. Therapy was then started and continued for 16 weeks and BMD was measured both in vivo and ex vivo, and microCT and serum biochemistry were performed.

[2] = system: OVX rats; assay: Treatment of osteopenia in OVX rats using rat TSH (Example 2B); type: in vivo
Protocol: A similar study following essentially the same dosing regimens. was performed using the native rat TSH in OVX rats. […] Rat TSH with a specific activity of approximately 90 lU/mg was obtained from the Scripps Institute. Bone mineral monitoring in vivo and serum and urine biochemical analyses were performed essentially as described in Example 3A.
Biochemical assays—Urinary levels of deoxypyridinoline cross-links and creatinine (DPD and Cr, respectively) are analyzed in duplicate using rat ELISA kits from Metrobiosystems (Mountain View, Calif., USA). Serum levels of osteocalcin (OSC) are measured using a rat sandwich ELISA kit from Biomedical Technologies (Stroughton, Mass., USA). The manufacturer's protocols are followed, and all samples are assayed in duplicate. A standard curve is generated from each kit, and the absolute concentrations are extrapolated from the standard curve. […]
The complete secondary spongiosa of the proximal tibia is evaluated, thereby completely avoiding sampling errors incurred by random deviations of a single section. […] From the binarized images, structural indices are assessed with three-dimensional (3D) techniques for trabecular bone.
Relative bone volume, trabecular number, thickness, and separation are calculated by measuring 3D distances directly in the trabecular network and taking the mean over all voxels.
Bone surface is calculated from a tetrahedron meshing technique. By displacing the surface of the structure in infinitesimal amounts, the structure model index (SMI) is calculated. The SMI quantifies the plate versus rod characteristics of trabecular bone, in which an SMI of 0 pertains to a purely plate-shaped bone, an SMI of 3 designates a purely rod-like bone, and values between stand for mixtures of plates and rods. Furthermore, connectivity density based on the Euler number is determined. In addition, a 3D cubical voxel model of bone is built, and cortical thickness is measured.

[3] = system: thyroid; conditions: in rats; cited from earlier work
[4] = obtained from the Scripps Institute; cited from earlier work
[5] = in particular with 0.1 and 0.3 μg/rat

For “rat TSH: native rat TSH obtained from the Scripps Institute”, the “BMD values of hind limbs in vivo” value ([1]; 0.01 μg/rat, 12 and 16 weeks time points) was “did not induce a measurable effect”, the “cortical thickness above ovariectomized rats” value ([1]; 0.1 μg/rat) was 14% and the “cortical thickness above sham animal values” ([1]; 0.1 μg/rat) was roughly 10%. For the same substance, the “ex vivo proximal femur BMD (DEXA)” value ([1]; 0.3 μg) was “increased”, the “cortical thickness (microCT)” value ([1]; 0.1 and 0.3 μg/rat) was “increased” and the “BMD values of hind limbs in vivo” value ([1]; 0.1 and 0.3 μg/rat, FIG. 14) was “increased”. The “bone volume of long bones and the spine (microCT, trabecular bone ex vivo)” value ([1]; all three doses tested (0.01, 0.1, 0.3 μg)) was “increased”, the “ex vivo lumbar spine BMD” value [1, 5] was “increased” and the “ex vivo tibia BMD” value [1, 5] was “increased”. For the same substance, the “trabecular number (microCT)” value ([1]; lesser extent than trabecular thickness) was “increased”, the “T3 and T4 serum levels” value ([1]; rat, in vivo) was “no measurable increase” and the “ex vivo distal femur BMD (DEXA)” value ([1]; rat, in vivo) was “slightly increased”. The “ex vivo total femur BMD (DEXA)” value ([1]; rat, in vivo) was “slightly increased”, the “trabecular thickness (microCT)” value ([1]; vs sham and ovariectomized rats) was “significantly increased” and the “bone loss associated with ovariectomy” value ([2]; 0.01, 0.1, 0.3 μg per rat, in vivo total body, hind limbs, lumbar BMD, ex vivo proximal femur and tibia BMD, microCT) was “effective in preventing the bone loss”. The “serum collagen C-telopeptide” value ([2]; indicates anti-resorptive activity) was “reduction”, the “effective concentration in the rat relative to human TSH” value ([2]; rat, in vivo) was “effective in the rat at lower concentration than human TSH” and the “effectiveness in stimulating thyroid hormone production compared to human recombinant TSH” value [3] was 10-20 times. The specific activity [4] was “approximately 90 lU/mg”.
